# Laboratory results reported in PubChem BioAssay (NCI).
#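 Five concentrations, 48 hours, 96-well plates. TGI: concentration producing complete growth inhibition.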
# What was measured:
# Assay in all cases: inhibition of tumour cell growth, NCI panel, 48 h
# HL-60(TB) leukemia = system: HL-60(TB) leukemia
# SF-268 CNS = system: SF-268 CNS
# UACC-257 melanoma = system: UACC-257 melanoma
# SW-620 colon = system: SW-620 colon
# MALME-3M melanoma = system: MALME-3M melanoma
# HCC-2998 colon = system: HCC-2998 colon
# A498 renal = system: A498 renal
# SNB-78 CNS = system: SNB-78 CNS
# OVCAR-4 ovarian = system: OVCAR-4 ovarian
# NCI-H522 lung = system: NCI-H522 lung
# SK-MEL-28 melanoma = system: SK-MEL-28 melanoma
# OVCAR-8 ovarian = system: OVCAR-8 ovarian
# HT29 colon = system: HT29 colon
# KM20L2 colon = system: KM20L2 colon
# SK-MEL-2 melanoma = system: SK-MEL-2 melanoma
# OVCAR-3 ovarian = system: OVCAR-3 ovarian
# HCT-116 colon = system: HCT-116 colon
# SN12C renal = system: SN12C renal
# KM12 colon = system: KM12 colon
# HCT-15 colon = system: HCT-15 colon
# MOLT-4 leukemia = system: MOLT-4 leukemia
# U251 CNS = system: U251 CNS
# LXFL 529 NSCLC = system: LXFL 529 NSCLC
# SF-295 CNS = system: SF-295 CNS
# K-562 leukemia = system: K-562 leukemia
# UACC-62 melanoma = system: UACC-62 melanoma
# A549 NSCLC = system: A549 NSCLC
# COLO 205 colon = system: COLO 205 colon
# SR leukemia = system: SR leukemia
# UO-31 renal = system: UO-31 renal
# HOP-92 NSCLC = system: HOP-92 NSCLC
# NCI-H460 lung = system: NCI-H460 lung
# CCRF-CEM leukemia = system: CCRF-CEM leukemia
# SNB-19 CNS = system: SNB-19 CNS
# SNB-75 CNS = system: SNB-75 CNS
# NCI-H23 lung = system: NCI-H23 lung
# XF 498 CNS = system: XF 498 CNS
# RPMI-8226 leukemia = system: RPMI-8226 leukemia
# DMS 273 small cell lung = system: DMS 273 small cell lung
# TK-10 renal = system: TK-10 renal
# SK-MEL-5 melanoma = system: SK-MEL-5 melanoma
# DLD-1 colon = system: DLD-1 colon
# DMS 114 small cell lung = system: DMS 114 small cell lung
# SF-539 CNS = system: SF-539 CNS
# SK-OV-3 ovarian = system: SK-OV-3 ovarian
# ACHN renal = system: ACHN renal
# CAKI-1 renal = system: CAKI-1 renal
# HOP-62 NSCLC = system: HOP-62 NSCLC
# M14 melanoma = system: M14 melanoma
# OVCAR-5 ovarian = system: OVCAR-5 ovarian
# EKVX NSCLC = system: EKVX NSCLC
# IGROV1 ovarian = system: IGROV1 ovarian
# M19-MEL melanoma = system: M19-MEL melanoma
# 786-0 renal = system: 786-0 renal
# RXF 393 renal = system: RXF 393 renal
# NCI-H226 lung = system: NCI-H226 lung
structure (smiles),measurement,setting,value
Cn1c(=O)c2nc(N3CCOCC3)cnc2n(C)c1=O,TGI,HL-60(TB) leukemia,> 100 µM
same,TGI,SF-268 CNS,> 100 µM
same,TGI,UACC-257 melanoma,> 100 µM
same,TGI,SW-620 colon,> 100 µM
same,TGI,MALME-3M melanoma,> 100 µM
same,TGI,HCC-2998 colon,> 100 µM
same,TGI,A498 renal,> 100 µM
same,TGI,SNB-78 CNS,> 100 µM
same,TGI,OVCAR-4 ovarian,> 100 µM
same,TGI,NCI-H522 lung,> 100 µM
same,TGI,SK-MEL-28 melanoma,> 100 µM
same,TGI,OVCAR-8 ovarian,> 100 µM
same,TGI,HT29 colon,> 100 µM
same,TGI,KM20L2 colon,> 100 µM
same,TGI,SK-MEL-2 melanoma,> 100 µM
same,TGI,OVCAR-3 ovarian,> 100 µM
same,TGI,HCT-116 colon,> 100 µM
same,TGI,SN12C renal,> 100 µM
same,TGI,KM12 colon,> 100 µM
same,TGI,HCT-15 colon,> 100 µM
same,TGI,MOLT-4 leukemia,> 100 µM
same,TGI,U251 CNS,> 100 µM
same,TGI,LXFL 529 NSCLC,> 100 µM
same,TGI,SF-295 CNS,> 100 µM
same,TGI,K-562 leukemia,> 100 µM
same,TGI,UACC-62 melanoma,> 100 µM
same,TGI,A549 NSCLC,> 100 µM
same,TGI,COLO 205 colon,> 100 µM
same,TGI,SR leukemia,> 100 µM
same,TGI,UO-31 renal,> 100 µM
same,TGI,HOP-92 NSCLC,> 100 µM
same,TGI,NCI-H460 lung,> 100 µM
same,TGI,CCRF-CEM leukemia,> 100 µM
same,TGI,SNB-19 CNS,> 100 µM
same,TGI,SNB-75 CNS,> 100 µM
same,TGI,NCI-H23 lung,> 100 µM
same,TGI,XF 498 CNS,> 100 µM
same,TGI,RPMI-8226 leukemia,> 100 µM
same,TGI,DMS 273 small cell lung,> 100 µM
same,TGI,TK-10 renal,> 100 µM
same,TGI,SK-MEL-5 melanoma,> 100 µM
same,TGI,DLD-1 colon,> 100 µM
same,TGI,DMS 114 small cell lung,> 100 µM
same,TGI,SF-539 CNS,> 100 µM
same,TGI,SK-OV-3 ovarian,> 100 µM
same,TGI,ACHN renal,> 100 µM
same,TGI,CAKI-1 renal,> 100 µM
same,TGI,HOP-62 NSCLC,> 100 µM
same,TGI,M14 melanoma,> 100 µM
same,TGI,OVCAR-5 ovarian,> 100 µM
same,TGI,EKVX NSCLC,> 100 µM
same,TGI,IGROV1 ovarian,> 100 µM
same,TGI,M19-MEL melanoma,> 100 µM
N=c1oc2c(O)c(O)ccc2cc1C(N)=O,TGI,SF-268 CNS,> 100 µM
same,TGI,UACC-257 melanoma,> 100 µM
same,TGI,SW-620 colon,83.4 µM
same,TGI,MALME-3M melanoma,> 100 µM
same,TGI,HCC-2998 colon,> 100 µM
same,TGI,A498 renal,> 100 µM
same,TGI,SNB-78 CNS,> 100 µM
same,TGI,OVCAR-4 ovarian,31.7 µM
same,TGI,NCI-H522 lung,> 100 µM
same,TGI,SK-MEL-28 melanoma,> 100 µM
same,TGI,OVCAR-8 ovarian,50.9 µM
same,TGI,HT29 colon,> 100 µM
same,TGI,KM20L2 colon,> 100 µM
same,TGI,SK-MEL-2 melanoma,> 100 µM
same,TGI,OVCAR-3 ovarian,> 100 µM
same,TGI,HCT-116 colon,> 100 µM
same,TGI,SN12C renal,> 100 µM
same,TGI,KM12 colon,> 100 µM
same,TGI,786-0 renal,25.3 µM
same,TGI,HCT-15 colon,> 100 µM
same,TGI,RXF 393 renal,> 100 µM
same,TGI,MOLT-4 leukemia,75.2 µM
same,TGI,U251 CNS,> 100 µM
same,TGI,LXFL 529 NSCLC,93.1 µM
same,TGI,SF-295 CNS,94.5 µM
same,TGI,K-562 leukemia,36.4 µM
same,TGI,UACC-62 melanoma,> 100 µM
same,TGI,A549 NSCLC,> 100 µM
same,TGI,COLO 205 colon,> 100 µM
same,TGI,UO-31 renal,> 100 µM
same,TGI,HOP-92 NSCLC,> 100 µM
same,TGI,NCI-H460 lung,> 100 µM
same,TGI,CCRF-CEM leukemia,47 µM
same,TGI,SNB-19 CNS,> 100 µM
same,TGI,SNB-75 CNS,97.6 µM
same,TGI,NCI-H23 lung,> 100 µM
same,TGI,XF 498 CNS,53 µM
same,TGI,RPMI-8226 leukemia,> 100 µM
same,TGI,DMS 273 small cell lung,> 100 µM
same,TGI,TK-10 renal,> 100 µM
same,TGI,DLD-1 colon,> 100 µM
same,TGI,DMS 114 small cell lung,> 100 µM
same,TGI,SF-539 CNS,> 100 µM
same,TGI,SK-OV-3 ovarian,> 100 µM
same,TGI,ACHN renal,> 100 µM
same,TGI,CAKI-1 renal,> 100 µM
same,TGI,HOP-62 NSCLC,> 100 µM
same,TGI,M14 melanoma,> 100 µM
same,TGI,OVCAR-5 ovarian,> 100 µM
same,TGI,EKVX NSCLC,> 100 µM
same,TGI,IGROV1 ovarian,> 100 µM
same,TGI,M19-MEL melanoma,44.8 µM
same,TGI,NCI-H226 lung,> 100 µM
COc1ccc(OC)c(NC(=O)C2=C(C)NC(C)=C(C(=O)Nc3cc(OC)ccc3OC)C2c2ccco2)c1,TGI,SF-268 CNS,> 100 µM
same,TGI,SW-620 colon,> 100 µM
same,TGI,MALME-3M melanoma,> 100 µM
same,TGI,A498 renal,> 100 µM
same,TGI,SNB-78 CNS,> 100 µM
same,TGI,NCI-H522 lung,> 100 µM
same,TGI,OVCAR-8 ovarian,> 100 µM
same,TGI,HT29 colon,> 100 µM
same,TGI,KM20L2 colon,> 100 µM
same,TGI,SK-MEL-2 melanoma,> 100 µM
same,TGI,OVCAR-3 ovarian,> 100 µM
same,TGI,HCT-116 colon,> 100 µM
same,TGI,SN12C renal,> 100 µM
same,TGI,KM12 colon,> 100 µM
same,TGI,786-0 renal,> 100 µM
same,TGI,HCT-15 colon,> 100 µM
same,TGI,MOLT-4 leukemia,> 100 µM
same,TGI,U251 CNS,> 100 µM
same,TGI,LXFL 529 NSCLC,> 100 µM
same,TGI,K-562 leukemia,> 100 µM
same,TGI,UACC-62 melanoma,> 100 µM
same,TGI,A549 NSCLC,> 100 µM
same,TGI,COLO 205 colon,> 100 µM
same,TGI,SR leukemia,> 100 µM
same,TGI,UO-31 renal,> 100 µM
same,TGI,HOP-92 NSCLC,> 100 µM
same,TGI,NCI-H460 lung,> 100 µM
same,TGI,CCRF-CEM leukemia,> 100 µM
same,TGI,SNB-19 CNS,> 100 µM
same,TGI,SNB-75 CNS,> 100 µM
same,TGI,NCI-H23 lung,> 100 µM
same,TGI,XF 498 CNS,> 100 µM
same,TGI,RPMI-8226 leukemia,> 100 µM
same,TGI,DMS 273 small cell lung,> 100 µM
same,TGI,TK-10 renal,> 100 µM
same,TGI,SK-MEL-5 melanoma,> 100 µM
same,TGI,DLD-1 colon,> 100 µM
same,TGI,DMS 114 small cell lung,> 100 µM
same,TGI,SF-539 CNS,> 100 µM
same,TGI,SK-OV-3 ovarian,> 100 µM
same,TGI,ACHN renal,> 100 µM
same,TGI,CAKI-1 renal,> 100 µM
same,TGI,HOP-62 NSCLC,> 100 µM
same,TGI,M14 melanoma,> 100 µM
same,TGI,OVCAR-5 ovarian,> 100 µM
same,TGI,EKVX NSCLC,> 100 µM
same,TGI,IGROV1 ovarian,> 100 µM
same,TGI,M19-MEL melanoma,> 100 µM
same,TGI,NCI-H226 lung,> 100 µM
